According to ChEMBL document CHEMBL1156090, “Design and synthesis of cell potent BACE-1 inhibitors: structure-activity relationship of P1' substituents” (Bioorg Med Chem Lett, 2009):

Assays:
HEK293 = experiment: […] HEK293 cells expressing swedish-mutant APP FAD isoform; format: functional, Homo sapiens; conditions: read-out: ED50 (the source's name)
Cathepsin D = Cathepsin D (Homo sapiens, UniProt P07339)
Description: Inhibition of cathepsin D assessed as reduction in polarization after 110 mins by oregon green based fluorescence polarization assay

Beta-secretase 1 = Beta-secretase 1 (Homo sapiens, UniProt P56817)
Description: Inhibition of recombinant BACE1 expressed in Escherichia coli after 3 hrs by oregon green based fluorescence polarization assay

[1] = Apparent permeability from apical side to basolateral side in MDCK2 cells at 5 uM after 120 mins by LC/MS/MS; format: ADME, cell-based, Canis lupus familiaris, MDCK-II; conditions: dog, MDCK

Chain of Cathepsin D (P07339 65-162 limits assumed): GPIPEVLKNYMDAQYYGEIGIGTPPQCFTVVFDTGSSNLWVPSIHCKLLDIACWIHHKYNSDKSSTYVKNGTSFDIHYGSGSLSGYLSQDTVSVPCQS
Chain of Cathepsin D (P07339 169-412 limits assumed): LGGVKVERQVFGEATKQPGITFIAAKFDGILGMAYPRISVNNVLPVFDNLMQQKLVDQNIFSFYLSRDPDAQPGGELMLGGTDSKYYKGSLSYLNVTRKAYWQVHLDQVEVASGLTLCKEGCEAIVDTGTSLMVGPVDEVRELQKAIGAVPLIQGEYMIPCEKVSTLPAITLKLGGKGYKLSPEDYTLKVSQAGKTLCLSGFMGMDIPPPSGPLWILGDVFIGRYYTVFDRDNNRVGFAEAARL
Chain of Beta-secretase 1 (P56817 whole entry): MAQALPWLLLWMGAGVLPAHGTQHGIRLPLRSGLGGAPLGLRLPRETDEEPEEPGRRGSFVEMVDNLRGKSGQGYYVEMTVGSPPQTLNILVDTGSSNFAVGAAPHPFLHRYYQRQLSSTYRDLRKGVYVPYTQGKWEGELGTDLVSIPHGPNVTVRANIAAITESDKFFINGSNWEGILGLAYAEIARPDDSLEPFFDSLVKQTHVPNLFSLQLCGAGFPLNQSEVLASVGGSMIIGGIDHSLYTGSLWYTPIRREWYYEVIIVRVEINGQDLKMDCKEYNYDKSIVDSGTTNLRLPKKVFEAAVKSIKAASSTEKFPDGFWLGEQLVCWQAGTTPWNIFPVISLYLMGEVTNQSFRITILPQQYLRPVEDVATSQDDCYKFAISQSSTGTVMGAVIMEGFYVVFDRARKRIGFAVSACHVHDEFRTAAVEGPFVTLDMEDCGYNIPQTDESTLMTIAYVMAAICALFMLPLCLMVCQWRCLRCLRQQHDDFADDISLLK

Compound: CC(=O)N[C@@H](Cc1cc(F)cc(F)c1)[C@H](O)CN[C@]1(c2cccc(C(C)(C)C)c2)CC[C@H](O)CC1
- EC50 (HEK293; Homo sapiens, HEK293): 870 nM
- IC50 (Cathepsin D): > 10000 nM
- IC50 (Beta-secretase 1): 9200 nM

Compound: CC(=O)N[C@@H](Cc1cc(F)cc(F)c1)[C@H](O)CNC1(c2cccc(C(C)(C)C)c2)CCC(=O)NC1 (mixture of isomers)
- EC50 (HEK293; Homo sapiens, HEK293): 76 nM
- IC50 (Cathepsin D): 180 nM
- IC50 (Beta-secretase 1): 47 nM

Compound: CC(=O)N[C@@H](Cc1cc(F)cc(F)c1)[C@H](O)CN[C@@]1(c2cccc(C(C)(C)C)c2)CC[C@H](S(C)(=O)=O)NC1
- EC50 (HEK293; Homo sapiens, HEK293): 100 nM
- IC50 (Cathepsin D): 2300 nM
- IC50 (Beta-secretase 1): 210 nM

Compound: CC(=O)N[C@@H](Cc1cc(F)cc(F)c1)[C@H](O)CNC1(c2cccc(C(C)(C)C)c2)CCCN(C(N)=O)C1 (mixture of isomers)
- EC50 (HEK293; Homo sapiens, HEK293): 210 nM
- IC50 (Cathepsin D): 90 nM
- IC50 (Beta-secretase 1): 330 nM

Compound: CC(=O)N[C@@H](Cc1cc(F)cc(F)c1)[C@H](O)CN[C@@]1(c2cccc(C(C)(C)C)c2)CC[C@H](NS(C)(=O)=O)NC1
- EC50 (HEK293; Homo sapiens, HEK293): 5.9 nM
- IC50 (Cathepsin D): 7200 nM
- IC50 (Beta-secretase 1): 400 nM

Compound: CC(=O)N[C@@H](Cc1cc(F)cc(F)c1)[C@H](O)CN[C@@]1(c2cccc(C(C)(C)C)c2)CCC(NO)=NC1
- EC50 (HEK293; Homo sapiens, HEK293): 0.89 nM
- IC50 (Cathepsin D): 430 nM
- IC50 (Beta-secretase 1): 8.8 nM

Compound: CC(=O)N[C@@H](Cc1cc(F)cc(F)c1)[C@H](O)CNC1(c2cccc(C(C)(C)C)c2)CCCN(O)C1 (mixture of isomers)
- EC50 (HEK293; Homo sapiens, HEK293): 45 nM
- IC50 (Cathepsin D): 670 nM
- IC50 (Beta-secretase 1): 400 nM

Compound: CS[C@H]1CC[C@@](NC[C@@H](O)[C@H](Cc2cc(F)cc(F)c2)NC(C)=O)(c2cccc(C(C)(C)C)c2)CN1
- EC50 (HEK293; Homo sapiens, HEK293): 7.5 nM
- IC50 (Cathepsin D): 84 nM
- IC50 (Beta-secretase 1): 24 nM

Compound: CC(=O)N[C@@H](Cc1cc(F)cc(F)c1)[C@H](O)CNC1(c2cccc(C(C)(C)C)c2)CCCN(C(C)=O)C1 (mixture of isomers)
- EC50 (HEK293; Homo sapiens, HEK293): 560 nM
- IC50 (Cathepsin D): 410 nM
- IC50 (Beta-secretase 1): 1300 nM

Compound: CC(=O)N[C@@H](Cc1cc(F)cc(F)c1)[C@H](O)CN[C@@]1(c2cccc(C(C)(C)C)c2)CC[C@H](Nc2ccccn2)NC1
- EC50 (HEK293; Homo sapiens, HEK293): 21 nM
- IC50 (Cathepsin D): 4400 nM
- IC50 (Beta-secretase 1): 73 nM

Compound: CC(=O)N[C@@H](Cc1cc(F)cc(F)c1)[C@H](O)CN[C@@]1(c2cccc(C(C)(C)C)c2)CC[C@H](NC=O)NC1
- EC50 (HEK293; Homo sapiens, HEK293): 2.4 nM
- IC50 (Cathepsin D): > 10000 nM
- IC50 (Beta-secretase 1): 210 nM

Compound: CC(=O)N[C@@H](Cc1cc(F)cc(F)c1)[C@H](O)CNC1(c2cccc(C(C)(C)C)c2)CCCC1 (mixture of isomers)
- EC50 (HEK293; Homo sapiens, HEK293): > 100 nM
- IC50 (Cathepsin D): 130 nM
- IC50 (Beta-secretase 1): 220 nM

Compound: CC(=O)N[C@@H](Cc1cc(F)cc(F)c1)[C@H](O)CNC1(c2cccc(C(C)(C)C)c2)CCNCC1
- EC50 (HEK293; Homo sapiens, HEK293): 710 nM
- IC50 (Cathepsin D): > 10000 nM
- IC50 (Beta-secretase 1): 4700 nM

Compound: CC(=O)N[C@@H](Cc1cc(F)cc(F)c1)[C@H](O)CN[C@@]1(c2cccc(C(C)(C)C)c2)CC[C@H](N(O)C(C)=O)NC1
- EC50 (HEK293; Homo sapiens, HEK293): 1.3 nM
- IC50 (Cathepsin D): 2300 nM
- IC50 (Beta-secretase 1): 240 nM

Compound: CC(=O)N[C@@H](Cc1cc(F)cc(F)c1)[C@H](O)CN[C@@]1(c2cccc(C(C)(C)C)c2)CC[C@H](Nc2cccnc2)NC1
- IC50 (Cathepsin D): 9800 nM
- IC50 (Beta-secretase 1): 500 nM

Compound: CC(=O)N[C@@H](Cc1cc(F)cc(F)c1)[C@H](O)CNC1(c2cccc(C(C)(C)C)c2)CCC(=O)CC1
- EC50 (HEK293; Homo sapiens, HEK293): 5.6 nM
- IC50 (Cathepsin D): 450 nM
- IC50 (Beta-secretase 1): 120 nM

Compound: CC(=O)N[C@@H](Cc1cc(F)cc(F)c1)[C@H](O)CNC1(c2cccc(C(C)(C)C)c2)CCCN(C(=O)OCc2ccccc2)C1 (mixture of isomers)
- EC50 (HEK293; Homo sapiens, HEK293): 780 nM
- IC50 (Cathepsin D): 3.3 nM
- IC50 (Beta-secretase 1): 860 nM

Compound: COC(=O)N[C@H]1CC[C@@](NC[C@@H](O)[C@H](Cc2cc(F)cc(F)c2)NC(C)=O)(c2cccc(C(C)(C)C)c2)CN1
- EC50 (HEK293; Homo sapiens, HEK293): 16 nM
- IC50 (Cathepsin D): 2000 nM
- IC50 (Beta-secretase 1): 240 nM

Compound: CC(=O)N[C@@H](Cc1cc(F)cc(F)c1)[C@H](O)CN[C@@]1(c2cccc(C(C)(C)C)c2)CC[C@H](C(F)(F)F)NC1
- EC50 (HEK293; Homo sapiens, HEK293): 54 nM
- IC50 (Cathepsin D): 28 nM
- IC50 (Beta-secretase 1): 33 nM

Compound: CC(=O)N[C@@H](Cc1cc(F)cc(F)c1)[C@H](O)CNC1(c2cccc(C(C)(C)C)c2)CCc2n[nH]cc2C1 (mixture of isomers)
- EC50 (HEK293; Homo sapiens, HEK293): 2.1 nM
- IC50 (Cathepsin D): 300 nM
- Papp A→B at 2 h, 5 µM [1]: 1.6 ×10⁻⁶ cm/s

Compound: CC(=O)N[C@H]1CC[C@@](NC[C@@H](O)[C@H](Cc2cc(F)cc(F)c2)NC(C)=O)(c2cccc(C(C)(C)C)c2)CN1
- EC50 (HEK293; Homo sapiens, HEK293): 48 nM
- IC50 (Cathepsin D): > 10000 nM
- IC50 (Beta-secretase 1): 350 nM

Compound: CC(=O)N[C@@H](Cc1cc(F)cc(F)c1)[C@H](O)CNC1(c2cccc(-n3cccn3)c2)CCCOC1 (mixture of isomers)
- EC50 (HEK293; Homo sapiens, HEK293): 91 nM
- IC50 (Cathepsin D): 170 nM
- IC50 (Beta-secretase 1): 270 nM

Compound: CC(=O)N[C@@H](Cc1cc(F)cc(F)c1)[C@H](O)CN[C@@]1(c2cccc(C(C)(C)C)c2)CC[C@H](C#N)NC1
- EC50 (HEK293; Homo sapiens, HEK293): 37 nM
- IC50 (Cathepsin D): 640 nM
- IC50 (Beta-secretase 1): 380 nM

Compound: CC(=O)N[C@@H](Cc1cc(F)cc(F)c1)[C@H](O)CN[C@@]1(c2cccc(C(C)(C)C)c2)CC[C@H](NO)NC1
- EC50 (HEK293; Homo sapiens, HEK293): 0.96 nM
- IC50 (Cathepsin D): 3900 nM
- IC50 (Beta-secretase 1): 19 nM

Compound: CC(=O)N[C@@H](Cc1cc(F)cc(F)c1)[C@H](O)CNC1(c2cccc(C(C)(C)C)c2)CCc2nc(N)ncc2C1 (mixture of isomers)
- EC50 (HEK293; Homo sapiens, HEK293): 1.8 nM
- IC50 (Cathepsin D): 210 nM
- IC50 (Beta-secretase 1): 14 nM

Compound: CC(=O)N[C@@H](Cc1cc(F)cc(F)c1)[C@H](O)CNC1(c2cccc(C(C)(C)C)c2)CCNC(=O)C1 (single isomer, unassigned)
- EC50 (HEK293; Homo sapiens, HEK293): 21 nM
- IC50 (Cathepsin D): 330 nM
- IC50 (Beta-secretase 1): 18 nM

Compound: CC(=O)N[C@@H](Cc1cc(F)cc(F)c1)[C@H](O)CN[C@]1(c2cccc(C(C)(C)C)c2)CC[C@@H](O)CC1
- EC50 (HEK293; Homo sapiens, HEK293): 11 nM
- IC50 (Cathepsin D): 1400 nM
- Papp A→B at 2 h, 5 µM [1]: 0.3 ×10⁻⁶ cm/s
- IC50 (Beta-secretase 1): 24 nM

Compound: CC(=O)N[C@@H](Cc1cc(F)cc(F)c1)[C@H](O)CNC1(c2cccc(C(C)(C)C)c2)CCCNC1 (mixture of isomers)
- EC50 (HEK293; Homo sapiens, HEK293): > 1000 nM
- IC50 (Cathepsin D): 2330 nM
- IC50 (Beta-secretase 1): > 10000 nM

Compound: CC(=O)N[C@@H](Cc1cc(F)cc(F)c1)[C@H](O)CNC1(c2cccc(C(C)(C)C)c2)CCOCC1 (mixture of isomers)
- IC50 (Cathepsin D): 230 nM
- Papp A→B at 2 h, 5 µM [1]: 8.1 ×10⁻⁶ cm/s
- IC50 (Beta-secretase 1): 61 nM

Compound: CO[C@H]1CC[C@@](NC[C@@H](O)[C@H](Cc2cc(F)cc(F)c2)NC(C)=O)(c2cccc(C(C)(C)C)c2)CN1
- EC50 (HEK293; Homo sapiens, HEK293): 13 nM
- IC50 (Cathepsin D): 130 nM
- IC50 (Beta-secretase 1): 140 nM

Compound: CC(=O)N[C@@H](Cc1cc(F)cc(F)c1)[C@H](O)CNC1(c2cccc(C(C)(C)C)c2)CCNC(=O)C1 (stereo in doubt; 16)
- EC50 (HEK293): 23 nM
- IC50 (Cathepsin D): 1100 nM
- IC50 (Beta-secretase 1): 19 nM

Compound: CON[C@H]1CC[C@@](NC[C@@H](O)[C@H](Cc2cc(F)cc(F)c2)NC(C)=O)(c2cccc(C(C)(C)C)c2)CN1
- EC50 (HEK293; Homo sapiens, HEK293): 7.6 nM
- IC50 (Cathepsin D): 530 nM
- IC50 (Beta-secretase 1): 100 nM

Compound: CC(=O)N[C@@H](Cc1cc(F)cc(F)c1)[C@H](O)CNC1(c2cccc(C(C)(C)C)c2)CCN(C(N)=O)CC1
- EC50 (HEK293; Homo sapiens, HEK293): > 1000 nM
- IC50 (Cathepsin D): 4300 nM
- IC50 (Beta-secretase 1): 380 nM

Compound: CC(=O)N[C@@H](Cc1cc(F)cc(F)c1)[C@H](O)CNC1(c2cccc(C(C)(C)C)c2)CCc2nc(C)ncc2C1 (mixture of isomers)
- EC50 (HEK293; Homo sapiens, HEK293): 15 nM
- IC50 (Cathepsin D): 910 nM
- IC50 (Beta-secretase 1): 93 nM

Compound: CC(=O)N[C@@H](Cc1cc(F)cc(F)c1)[C@H](O)CN[C@]1(c2cccc(C(C)(C)C)c2)CC[C@@H](CCO)CC1
- EC50 (HEK293; Homo sapiens, HEK293): > 1000 nM
- IC50 (Cathepsin D): > 10000 nM
- IC50 (Beta-secretase 1): > 10000 nM

Compound: CC(=O)N[C@@H](Cc1cc(F)cc(F)c1)[C@H](O)CN[C@]1(c2cccc(C(C)(C)C)c2)CC[C@@H](CO)CC1
- EC50 (HEK293; Homo sapiens, HEK293): 31 nM
- IC50 (Cathepsin D): 330 nM
- IC50 (Beta-secretase 1): 38 nM

Compound: CC(=O)N[C@@H](Cc1cc(F)cc(F)c1)[C@H](O)CNC1(c2cccc(-n3cccn3)c2)CCOC1 (mixture of isomers)
- EC50 (HEK293; Homo sapiens, HEK293): > 1000 nM
- IC50 (Cathepsin D): 4900 nM
- IC50 (Beta-secretase 1): 2400 nM
